The term IC50 denotes the concentration at which inhibition is half-maximal. A high value points to weaker potency in that assay.

22 molecules from US7169789B2 (Kirin Beer Kabushiki Kaisha, priority 1999, dated 2007) can be followed below.

One experiment deals with T1, human KDR (Homo sapiens, UniProt P35968).
T1 construct: expressed in transfected cells; host or cells: NIH 3T3 cells (Sawano A et al., Cell Growth & Differentiation 7, 213-221 (1996))
Put plainly: Inhibitory activity against KDR phosphorylation by ELISA. It counts as cell-based. As to conditions: NIH 3T3 cells transfected with human KDR, VEGF 100 ng/ml. As to the method:
Measurement of Inhibitory Activity Against KDR Phosphorylation by ELISA
NIH 3T3 cells (Sawano A et al., Cell Growth & Differentation, 7, 213–221 (1996), “Flt-1 but not KDR/Flk-1 tyrosine kinase is a receptor for placenta growth factor, which is related to vascular endothelial growth factor”) prepared by transfection of human KDR were cultured in a DMEM medium containing 10% fetal calf serum (purchased from GIBCO BRL) within a 5% carbon dioxide incubator until 50 to 70% confluent. The harvested cells were inoculated into wells, containing the same medium, in a collagen-type one-coat 96-well flat-bottom plate in an amount of 1.5×10^4 per well, followed by cultivation at 37° C. overnight. The medium was then replaced by a DMEM medium containing 0.1% fetal calf serum. A solution of the test compound in dimethyl sulfoxide was added to each well, and the cultivation was continued at 37° C. for additional one hr. A human recombinant vascular endothelial growth factor (hereinafter abbreviated to “VEGF”) was added to a final concentration of 100 ng/ml, and the stimulation of cells was carried out at 37° C. for 2 min. The medium was removed, the cells were washed with phosphate buffered saline (pH 7.4), and 50 μl of a solubilization buffer (20 mM HEPES (pH 7.4), 150 mM NaCl, 0.2% Triton X-100, 10% glycerol, 5 mM sodium orthovanadylate, 5 mM disodium ethylenediaminetetraacetate, and 2 mM Na4P2O7) was then added thereto. The mixture was shaken at 4° C. for 2 hr to prepare a cell extract.
Separately, phosphate buffered saline (50 μl, pH 7.4) containing […] of anti-phospho-tyrosine antibody (PY20; purchased from Transduction Laboratories) was added to a microplate for ELISA (Maxisorp; purchased from NUNC), followed by standing at 4° C. overnight to form a solid phase on the wells. After washing of the plate, 300 μl of a blocking solution was added, followed by standing at room temperature for 2 hr to perform blocking. After washing, the whole quantity of the cell extract was transferred to the wells, and the plate was then allowed to stand at 4° C. overnight. After washing, an anti-KDR antibody (purchased from Santa Cruz) was allowed to react at room temperature for one hr, and, after washing, a peroxidase-labeled anti-rabbit Ig antibody (purchased from Amersham) was allowed to react at room temperature for one hr. After washing, a chromophoric substrate for peroxidase (purchased from Sumitomo Bakelite Co., Ltd.) was added thereto to initiate a reaction. After a suitable level of color development, a reaction termination solution was added to stop the reaction, and the absorbance at 450 nm was measured with a microplate reader. The KDR phosphorylation activity for each well was determined by presuming the absorbance with the addition of VEGF and without the addition of the medicament to be 100% KDR phosphorylation activity and the absorbance without the medicament and VEGF to be 0% KDR phosphorylation activity. The concentration of the test compound was varied on several levels, the inhibition (%) of KDR phosphorylation was determined for each case, and the concentration of the test compound necessary for inhibiting 50% of KDR phosphorylation (IC50) was calculated.
(In general: An ELISA detects its analyte on a solid surface through an enzyme-linked reagent.)

A further experiment has as its system Human glioma cells GL07. Put plainly: Antitumor effect on human glioma cells (GL07) transplanted into nude mice. It counts as in vivo. The following applies: GL07, oral, 20 mg/kg once a day for 9 days; for inhibition in vivo at 20 mg/kg: Mus musculus, Glioma cell, 216 h, read-out: TGIR, % (tumor growth inhibition rate). As to the method: Antitumor Effect on Human Glioma Cells (GL07)
Human glioma cells GL07 (obtained from Central Laboratories for Experimental Animals) were transplanted into nude mice. When the tumor volume became about 100 mm^3, the mice were grouped. In this case, grouping was carried out so that each group consisted of four mice and the average tumor volume was even among the groups. The test compound was orally or intraperitoneally administered at a dose of 20 mg/kg to the test groups every day once a day for 9 days, while the medium was administered to the control group in the manner as in the test groups. The tumor growth inhibition rate (TGIR) was calculated as follows: The tumor growth inhibition rate (TGIR)=(1−Tx/Cx)×100 wherein Cx represents the volume of tumor at day x for the control group when the tumor volume at the day of the start of the administration was presumed to be 1; and Tx represents the volume of tumor for test compound administration groups.

Some results are limits rather than exact numbers.

T1 sequence (P35968 20-1356): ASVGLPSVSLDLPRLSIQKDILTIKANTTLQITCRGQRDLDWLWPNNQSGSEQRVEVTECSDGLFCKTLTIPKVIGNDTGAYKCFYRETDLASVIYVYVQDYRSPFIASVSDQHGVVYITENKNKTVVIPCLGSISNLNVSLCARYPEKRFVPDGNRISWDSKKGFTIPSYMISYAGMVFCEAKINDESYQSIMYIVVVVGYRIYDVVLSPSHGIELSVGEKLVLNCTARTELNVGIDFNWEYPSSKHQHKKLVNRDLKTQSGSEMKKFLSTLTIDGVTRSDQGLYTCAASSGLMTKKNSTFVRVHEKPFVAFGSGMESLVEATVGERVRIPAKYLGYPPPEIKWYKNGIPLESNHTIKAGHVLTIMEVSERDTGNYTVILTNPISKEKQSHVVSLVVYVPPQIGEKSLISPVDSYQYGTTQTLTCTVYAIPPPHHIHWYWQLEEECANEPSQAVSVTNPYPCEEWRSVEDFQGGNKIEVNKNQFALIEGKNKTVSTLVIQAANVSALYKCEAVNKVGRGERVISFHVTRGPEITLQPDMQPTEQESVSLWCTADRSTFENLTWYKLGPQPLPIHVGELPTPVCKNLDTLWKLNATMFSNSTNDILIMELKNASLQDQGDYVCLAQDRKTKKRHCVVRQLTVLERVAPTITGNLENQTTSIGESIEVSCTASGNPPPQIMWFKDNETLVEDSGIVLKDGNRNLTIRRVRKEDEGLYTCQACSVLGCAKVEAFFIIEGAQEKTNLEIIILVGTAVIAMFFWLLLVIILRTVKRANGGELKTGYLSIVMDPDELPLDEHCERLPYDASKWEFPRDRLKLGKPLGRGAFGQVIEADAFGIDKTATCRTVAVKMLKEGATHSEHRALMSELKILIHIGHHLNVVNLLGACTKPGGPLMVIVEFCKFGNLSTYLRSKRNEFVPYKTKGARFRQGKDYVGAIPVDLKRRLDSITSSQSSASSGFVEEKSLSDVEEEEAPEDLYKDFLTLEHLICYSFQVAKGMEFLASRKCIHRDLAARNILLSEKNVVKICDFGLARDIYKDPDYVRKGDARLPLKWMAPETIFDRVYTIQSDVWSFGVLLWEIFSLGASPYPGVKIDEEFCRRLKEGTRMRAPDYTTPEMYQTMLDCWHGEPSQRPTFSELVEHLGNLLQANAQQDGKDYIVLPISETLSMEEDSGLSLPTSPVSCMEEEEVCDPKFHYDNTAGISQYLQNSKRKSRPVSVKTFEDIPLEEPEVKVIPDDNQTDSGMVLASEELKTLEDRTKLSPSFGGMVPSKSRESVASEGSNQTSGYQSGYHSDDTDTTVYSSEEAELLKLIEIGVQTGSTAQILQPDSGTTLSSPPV

With `CCCNC(=O)Nc1ccc(Oc2ncnc3cc(OCCO)c(OC)cc23)cc1Cl` [Example 122, N-(2-Chloro-4-{[7-(2-hydroxyethoxy)-6-methoxy-4-quinazolinyl]oxy}phenyl)-N′-propylurea], inhibition against human KDR was half-maximal at 5.8 nM (IC50). Moreover, the inhibition in vivo at 20 mg/kg with Human glioma cells GL07 is 21%.
Molecule `CCCNC(=O)Nc1ccc(Oc2ncnc3cc(OC)c(OCCCN4CCOCC4)cc23)cc1Cl` [Example 139, N-(2-Chloro-4-{[7-methoxy-6-(3-morpholinopropoxy)-4-quinazolinyl]oxy}phenyl)-N′-propylurea] came in with an IC50 against human KDR of 15 nM. Besides, in the experiment with Human glioma cells GL07, the inhibition in vivo at 20 mg/kg came out at 27%.
In the same order, the values of `CCCN(CCC)C(=O)Nc1ccc(Oc2ncnc3cc(OC)c(OC)cc23)cc1Cl` [Example 113, N′-{2-Chloro-4-[(6,7-dimethoxy-4-quinazolinyl)oxy]phenyl}-N,N-dipropylurea] are more than 1000 nM and 61%.
For `COc1cc2c(Oc3ccc(NC(=O)Nc4ccc(F)cc4F)c(Cl)c3)ncnc2cc1OCCCN1CCN(C)CC1` [Example 164, N-[2-chloro-4-(6-methoxy-7-{[3-(4-methylpiperazino)propoxy]-4-quinazolinyl}oxy)phenyl]-N′-(2,4-difluorophenyl)urea], at human KDR, the midpoint of inhibition, the IC50, lay at 0.9 nM. In addition, the “TGIR, % (tumor growth inhibition rate)” value in the experiment on Human glioma cells GL07 came to 55%.
For the molecule `COc1cc2c(Oc3ccc(NC(=O)N(C)C)c(Cl)c3)ncnc2cc1OCCN1CCOCC1` [Example 178, N′-(2-Chloro-4-{[6-methoxy-7-(2-morpholinoethoxy)-4-quinazolinyl]oxy}phenyl)-N,N-dimethylurea], the half-maximal inhibitory concentration (IC50) on human KDR is more than 1000 nM. The inhibition in vivo at 20 mg/kg in the experiment with Human glioma cells GL07 is 28%.
In the same order, the values of `CCCNC(=O)Nc1ccc(Oc2ccnc3cc(OCc4ccccn4)c(OC)cc23)cc1Cl` [Example 141, N-(2-Chloro-4-{[6-methoxy-7-(2-pyridylmethoxy)-4-quinolyl]oxy}phenyl)-N′-propylurea] are 14 nM and 28%.
Take `CCN(CC)C(=O)Nc1ccc(Oc2ncnc3cc(OCCn4ccnn4)c(OC)cc23)cc1Cl` [Example 131, N′-[2-Chloro-4-({6-methoxy-7-[2-(1H-1,2,3-triazol-1-yl)ethoxy]-4-quinazolinyl}oxy)phenyl]-N,N-diethylurea]: the IC50 against human KDR was more than 1000 nM. Also, the inhibition in vivo at 20 mg/kg in the experiment on Human glioma cells GL07 came to 31%.
In the same order, the values of `CCCNC(=O)Nc1ccc(Oc2ncnc3cc(OCCCN4CCOCC4)c(OC)cc23)cc1Cl` [Example 119, N-(2-chloro-4-{[6-methoxy-7-(3-morpholinopropoxy)-4-quinazolinyl]oxy}phenyl)-N′-propylurea] are 3.6 nM and 40%.
As for `CNC(=O)Nc1ccc(Oc2ncnc3cc(OCCCN4CCCCC4)c(OC)cc23)cc1Cl` [Example 184, N-(2-chloro-4-{[6-methoxy-7-(3-piperidinopropoxy)-4-quinazolinyl]oxy}phenyl)-N′-methylurea], the concentration for half-maximal inhibition (IC50) against human KDR was found to be 0.2 nM. Further, the inhibition in vivo at 20 mg/kg in the experiment with Human glioma cells GL07 was determined as 48%.
In the same order, the values of `COc1cc2c(Oc3ccc(NC(=O)Nc4ccc(F)cc4F)c(Cl)c3)ncnc2cc1OCCCN(C)CCO` [Example 165, N-{2-chloro-4-[(7-{3-[(2-hydroxyethyl)-(methyl)amino]propoxy}-6-methoxy-4-quinazolinyl)oxy]-phenyl}-N′-(2,4-difluorophenyl)urea] are 0.6 nM and 44%.
Molecule `CCCNC(=O)N(C(C)=O)c1ccc(Oc2ncnc3cc(OC)c(OC)cc23)cc1Cl` [Example 110, N-Acetyl-N-{2-chloro-4-[(6,7-dimethoxy-4-quinazolinyl)oxy]phenyl}-N′-propylurea] returned a concentration for half-maximal inhibition (IC50) against human KDR of more than 1000 nM. Further, in the experiment on Human glioma cells GL07, the inhibition in vivo at 20 mg/kg was 26%.
With `CCCNC(=O)Nc1ccc(Oc2ncnc3cc(OC)c(OCCCN4CCN(C)CC4)cc23)cc1Cl` [Example 137, N-[2-Chloro-4-({7-methoxy-6-[3-(4-methylpiperazino)propoxy]-4-quinazolinyl}oxy)phenyl]-N′-propylurea], the half-inhibitory concentration (IC50) against human KDR stood at 24 nM. Moreover, the inhibition in vivo at 20 mg/kg in the experiment on Human glioma cells GL07 is 20%.
With `CCCNC(=O)Nc1ccc(Oc2ncnc3cc(OCCCCCN4CCOCC4)c(OC)cc23)cc1Cl` [Example 124, N-[2-Chloro-4-({6-methoxy-7-[(5-morpholinopentyl)oxy]-4-quinazolinyl}oxy)phenyl]-N′-propylurea], on human KDR, half-maximal inhibition (IC50) was put at 1.9 nM. The inhibition in vivo at 20 mg/kg in the experiment on Human glioma cells GL07 was 27%.
In the same order, the values of `CCCNC(=O)Nc1ccc(Oc2ncnc3cc(OCCCSc4ccncc4)c(OC)cc23)cc1Cl` [Example 133, N-[2-Chloro-4-({6-methoxy-7-[3-(4-pyridylthio)propoxy]-4-quinazolinyl}oxy)phenyl]-N′-propylurea] are 8.3 nM and 20%.
For `CCCCN(C)C(=O)Nc1ccc(Oc2ncnc3cc(OC)c(OC)cc23)cc1Cl` [Example 114, N-Butyl-N′-{2-chloro-4-[(6,7-dimethoxy-4-quinazolinyl)oxy]phenyl}-N-methylurea], in that order: more than 1000 nM and 60%.
In the same order, the values of `CCCN(CC)C(=O)Nc1ccc(Oc2ncnc3cc(OC)c(OC)cc23)cc1Cl` [Example 112, N′-{2-Chloro-4-[(6,7-dimethoxy-4-quinazolinyl)oxy]phenyl}-N-ethyl-N-propylurea] are more than 1000 nM and 81%.
For the molecule `COc1cc2c(Oc3ccc(NC(=O)N(C)C)c(Cl)c3)ncnc2cc1OCCCN1CCN(C)CC1` [Example 182, N′-[2-Chloro-4-({6-methoxy-7-[3-(4-methylpiperazino)propoxy]-4-quinazolinyl}oxy)phenyl]-N,N-dimethylurea], the half-maximal inhibitory concentration (IC50) on human KDR was more than 1000 nM. The inhibition in vivo at 20 mg/kg with Human glioma cells GL07 worked out at 31%.
In the same order, the values of `CCCNC(=O)Nc1ccc(Oc2ncnc3cc(OCCCCCn4ccnn4)c(OC)cc23)cc1Cl` [Example 125, N-{2-chloro-4-[(6-methoxy-7-{[5-(1H-1,2,3-triazol-1-yl)pentyl]oxy}-4-quinazolinyl)oxy]phenyl}-N′-propylurea] are 2.6 nM and 30%.
`CCCN(C)C(=O)Nc1ccc(Oc2ncnc3cc(OC)c(OC)cc23)cc1Cl` [Example 111, N′-{2-Chloro-4-[(6,7-dimethoxy-4-quinazolinyl)oxy]phenyl}-N-methyl-N-propyurea] had a half-maximal inhibitory concentration (IC50) against human KDR of more than 1000 nM. Further, the inhibition in vivo at 20 mg/kg with Human glioma cells GL07 was found to be 78%.
For the molecule `CCCNC(=O)Nc1ccc(Oc2ccnc3cc(OCCCN(C)CCO)c(OC)cc23)cc1Cl` [Example 157, N-{2-chloro-4-[(7-{3-[(2-hydroxyethyl)-(methyl)amino]propoxy}-6-methoxy-4-quinolyl)oxy]-phenyl}-N′-propylurea], at human KDR, it took 0.4 nM to reach half-maximal inhibition (IC50). Besides, in the experiment with Human glioma cells GL07, the inhibition in vivo at 20 mg/kg was 44%.
As to `CCCNC(=O)Nc1ccc(Oc2ncnc3cc(OC)c(OCCCN(C)CCO)cc23)cc1Cl` [Example 140], the IC50 against human KDR was 36 nM. Besides, the inhibition in vivo at 20 mg/kg with Human glioma cells GL07 turned out to be 21%.
As for `CCCNC(=O)Nc1ccc(Oc2ccnc3cc(OCCCN(CCO)CCO)c(OC)cc23)cc1Cl` [Example 156, N-{2-Chloro-4-[(7-{3-[di(2-hydroxyethyl)-amino]propoxy}-6-methoxy-4-guinolyl)oxy]phenyl}-N′-propylurea], at human KDR, the IC50 was determined as 0.8 nM. Besides, the inhibition in vivo at 20 mg/kg with Human glioma cells GL07 turned out to be 24%.
